Results: patent publication US11661404B2, “Prodrug compounds activated by AKR1C3 and their use for treating hyperproliferative disorders” (priority 2018, dated 2023)
Like-named read-outs stand apart in the source and are kept apart here.

How the values were obtained:
recombinant human AKR1C3 = biological target: T1, recombinant human AKR1C3 (Homo sapiens, UniProt P42330); assay: Kinetics assay: metabolism of prodrugs by recombinant human AKR1C3; type: biochemical; settings: NADPH, pH 7.4, 37° C.
T1 construct: His6 (hexahistidine) (C); made in house; host or cells: E. coli BL21(DE3)
T1 sequence (P42330 1-323): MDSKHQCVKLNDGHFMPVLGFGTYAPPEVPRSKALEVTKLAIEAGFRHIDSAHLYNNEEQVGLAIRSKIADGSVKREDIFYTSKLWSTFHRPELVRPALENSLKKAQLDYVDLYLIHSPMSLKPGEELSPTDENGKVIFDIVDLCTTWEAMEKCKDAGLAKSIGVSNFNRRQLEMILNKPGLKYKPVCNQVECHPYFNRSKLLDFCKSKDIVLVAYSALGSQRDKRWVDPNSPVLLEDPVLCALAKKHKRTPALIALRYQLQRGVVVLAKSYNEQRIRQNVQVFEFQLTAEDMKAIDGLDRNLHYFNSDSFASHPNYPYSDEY
Description: E. coli BL21(DE3) cells expressing the pET22b-AKR1C3 construct with a C-terminal hexahistidine (His6) tag and constitutive promoter was generated. Colonies of these transformed E. coli cells were grown in LB agar medium containing 100 μg/mL of ampicillin. A single colony was picked the following day and grown in 400 mL batches of bacterial medium containing ampicillin (100 μg/mL) at 37° C., with continuous shaking at 200 rpm overnight. Bacterial cultures were pelleted by centrifugation (4000×g, 15 minutes) and resuspended in lysis buffer (10 mL/400 mL culture). The cells were disrupted by sonication (Sonicator 3000, Misonix) and centrifuged at 14,000 rpm for 30 minutes (at 4° C.). The cleared lysate was filtered in successive filters containing pore sizes of 1.20 μm, 0.8 μm and 0.2 μm and loaded onto a nickel-agarose affinity chromatography column on an ÄKTA Purifier system. The column was washed with 20 mL of the lysis buffer and the His6-tagged AKR1C3 protein was eluted with lysis buffer supplemented with 500 mM imidazole. The protein was further purified by a liquid chromatography gel filtration column (Superdex 200 HR16/60) using lysis buffer (supplemented with 5% v/v glycerol) and 1 mM DTT (pH 7.0) at a flow rate of 0.3 mL/min. Protein was monitored by absorbance at 280 nm, and purity of the fractions (1 mL) was assessed by SDS-PAGE. Active fractions containing the purified protein were pooled and concentrated by centrifugation (3,000×g, 4° C.) on a Vivaspin concentrator (MWCO 10,000 cutoff; GE Healthcare). The protein containing solution was supplemented with glycerol (to a final concentration of 15%, v/v) and NADP^+ was added to a final concentration of 2 mM.
Kinetic parameters of compounds of the invention were determined in a 96-well plate format. The 100 mM potassium phosphate buffer used in this assay was made with the following reagents to a pH of 7.4: • 0.5 M K2HPO4— 8.2 mL • 0.5 M KH2PO4— 1.8 mL • BSApowder—25 mg • Milli Q water—40 mL
For the assay, 2 μL of varying substrate concentrations were incubated with 94 μL of the potassium phosphate buffer and 2 μL of 5 mM NADPH for 5 minutes in the pre-warmed (37° C.) plate chamber of a Molecular Devices SpectraMax M2 plate reader. Purified AKR1C3 enzyme (2 μL) was added to a final concentration of […] in each well using an Eppendorf electronic multi-channel pipette. Absorbance measurements were recorded immediately upon addition of enzyme over a period of 5 minutes at a wavelength of 400 nm. Absorbance changes for each compound concentration were plotted against time to obtain the rate of absorbance change over the 5 minute period. The rate of absorbance change was then plotted against the compound concentration and non-linear regression analysis and Michaelis-Menten curve fitting performed on GraphPadPrism (version 5.00 for Windows, GraphPad Software, San Diego Calif. USA) in order to determine kinetic parameters of compounds.

[1] = test system: wild-type PLC/PRF/5 hepatocellular carcinoma cells; assay: Anti-proliferative IC50 assay, wild-type PLC/PRF/5; type: cell-based, human; settings: for IC50: Homo sapiens, PLC-PRF-5
Description: Four hundred cells were seeded in a volume of 100 μL in each well of a 96-well plate. The cells were left in a humidified incubator (37° C., 5% CO2) for 2 hours in order to enable attachment to the surface of the wells prior to compound addition. All compounds were prepared as stocks in DMSO and stored at −80° C. Frozen stocks of compounds were thawed immediately prior to addition to cells. Working solutions of each compound were made in α-MEM+5% FBS (v/v) at 3 times the required final concentration for the top well. The final concentration of DMSO in the α-MEM solution was ensured to not exceed 1% of the total volume. 50 μL of the working solution was added to the top wells (in duplicates) and gently mixed. The solubility of some compounds precluded the working solution in α-MEM to be 3 times the desired top well concentration. […] A 3-fold serial dilution was carried out along the plate starting from the top well. The first column of wells on the plate served as blanks (containing α-MEM+FBS) and the second column served as control wells (containing cells with no compound added). Following compound addition, the plates were incubated for 4 hours in a humidified incubator (37° C., 5% CO2).
Following the 4 hour compound exposure, the 96-well plates were washed three times by aspirating media with an Immuno Washer (Nunc) and each well replaced with 150 μL of α-MEM+5% (v/v) FBS+1% (v/v) P/S. The plates were left in a humidified incubator (37° C., 5% CO2) for 5 days to enable cell growth. The cells in 96-well plates were fixed 5 days after compound exposure by adding 50 μL of a 40% (w/v) trichloroacetic acid (TCA) solution so as to obtain a final TCA concentration of 10% in each well. The plates were left in the refrigerator (4° C.) for 1 hour and subsequently rinsed 3 times in tap water. Any excess water was left to drain and the cells were stained with 50 μL of 0.4% (w/v) sulforhodamine B (SRB). The plates with the SRB stain were left in the dark for 30 minutes. Excess stain was removed from the wells by rinsing the plates 4 times in water containing 1% (v/v) acetic acid. The stain was solubilised by adding 100 μL of 10 mM unbuffered Tris (pH 10.5) to each well and the plates were left in a shaker in a dark environment at room temperature for at least 1 hour. The absorbance values of the wells were determined by an ELx 808 Absorbance Microplate Reader (Bio-Tek Instruments, Winooski, Vt., USA), with the wavelength of the measurement filter set at 490 nm and a reference filter set at 450 nm. The absorbance of the reference filter was subtracted from the measurement filter to obtain a final absorbance of λ490-450 nm. The absorbance data was analysed and IC50 values determined by the KC4 microplate data analysis software (KC4™ V3.4, Bio-Tek).
Anti-proliferative IC50 assays were repeated as described above including the addition of 3 μM SN34037, a selective and potent small molecule inhibitor of AKR1C3.
Materials and methods used are as described for Example 9.

[2] = read-out: PLC/PRF/5-WT Anti-proliferative IC50
[3] = with 3 μM SN34037, read-out: PLC/PRF/5-WT +AKR1C3 Inhibitor Anti-proliferative IC50

Row | SMILES | Km (recombinant human AKR1C3) [µM] | kcat (recombinant human AKR1C3) [s⁻¹] | IC50 [1, 2] [µM] | IC50 [1, 3] [µM] | more cytotoxic in PLC/PRF/5 cells than SN34454 [1] [fold]
1 | CN1CCN(C(=O)c2cc([N+](=O)[O-])ccc2N(CCBr)CCBr)CC1 [SN34118, reference compound] | 9 | 18.7 | 115 | 174 | –
2 | CN1CCN(S(=O)(=O)c2cc([N+](=O)[O-])ccc2N(CCBr)CCOS(C)(=O)=O)CC1 [Compound 602, 2-((2-bromoethyl)(2-((4-methylpiperazin-1-yl)sulfonyl)-4-nitrophenyl)amino)ethyl methanesulfonate] | 33.1 | – | 1.19 | 23.7 | 94
3 | CS(=O)(=O)OCCN(CCBr)c1c(C(=O)NCCO)cc([N+](=O)[O-])cc1[N+](=O)[O-] [PR-104A, 2-((2-bromoethyl)(2-((2-hydroxyethyl)-carbamoyl)-4,6-dinitrophenyl)amino)ethyl methanesulfonate, reference compound] | 72.9 | 18.7 | 108 | 181 | –
4 | CN1CCN(S(=O)(=O)c2cc([N+](=O)[O-])ccc2N(CCOS(C)(=O)=O)CCOS(C)(=O)=O)CC1 [Compound 641, ((2-((4-methylpiperazin-1-yl)sulfonyl)-4-nitrophenyl)azanediyl)bis(ethane-2,1-diyl) dimethanesulfonate] | 21.5 | – | 1.42 | 40.5 | –
5 | CS(=O)(=O)OCCN(CCBr)c1ccc([N+](=O)[O-])cc1S(=O)(=O)N1CCN(CC(O)CO)CC1 (stereo not drawn) [Compound 605, 2-((2-bromoethyl)(2-((4-(2,3-dihydroxypropyl)piperazin-1-yl)sulfonyl)-4-nitrophenyl)amino)ethyl methanesulfonate] | 17.1 | – | – | – | –
6 | O=[N+]([O-])c1ccc(N(CCBr)CCBr)c(S(=O)(=O)N2CCN(CC(O)CO)CC2)c1 (stereo not drawn) [Compound 566, 3-(4-((2-(bis(2-bromoethyl)amino)-5-nitrophenyl)sulfonyl)piperazin-1-yl)propane-1,2-diol] | 32.2 | 67.1 | – | – | –
7 | CN1CCN(C(=O)c2cc([N+](=O)[O-])ccc2N(CCBr)CCOS(C)(=O)=O)CC1 [SN34454, reference compound] | – | 5.2 | 111 | 131 | –
